The target in experiment [1] is T1, PARP1 (His6-PARP1, full length) (Homo sapiens, UniProt P09874).
T1 construct: His6-PARP1 (full length) can be substituted for His6-TNKS 1
The experiment is described as follows: TR-FRET Binding Assay (Example 71), PARP1. Conditions: TR-FRET assay of Example 71 with His6-PARP1. The method in brief:
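Competition binding: test compound displaces biotin-IWR2 from His6-PARP1 (full length), read by Eu-streptavidin/APC-anti-His6 TR-FRET. PARP1 30 min at 26°C with compound and probe in Tris pH 7.4 buffer with DTT, BSA and NP-40, then detection reagents for 60 min. Excitation 330 nm, emission 615 and 665 nm; […].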

Experiment [2] deals with Wnt stimulated TCF transcriptional activity. As to the kind of experiment: Tankyrase 1 Assay (Example 72): HEK293-TS 112 TCF reporter cell line. The experiment is classed as cell-based. Conditions: footnote 2: Tankyrase 1 inhibition assay in Example 72 (TOPbrite luciferase reporter, Wnt3A 0.5 ug/mL, 16 hours); read-out: TNKS1 IC50. As to the method: Inhibition of the Wnt stimulated TCF transcriptional activity by tankyrase inhibitors was determined utilizing a HEK293-TS 112 TCF reporter cell line. A Wnt-responsive luciferase reporter named TOPbrite was constructed by cloning the enhancer element of Super8xTOPFlash containing eight TCF/LEF binding sites into the pGL4.28 vector (Promega) upstream of the minimal promoter element, and selecting for hygromycin B resistance (50 μg/ml). Cells were seeded into 384-well plates in the presence of 0.5 ug/mL of Wnt3A at a density of 20,000 cells per well in 25 ul of F:12 DMEM media supplemented with 10% FBS and 2 mM Glutamax. Cells seeded without the addition of Wnt3A were used as background signal. Compounds of various concentrations were added to cells and incubated at 37 degrees with 5% CO2 for 16 hours. The assay was terminated with the addition of Promega Dual Glo kit per manufacturer's instructions. A ratio of TOPbrite Firefly Luciferase and SV40 Renillla Luciferase was calculated and the background from the neutral wells was subtracted yielding the final normalized measurement of TCF transcriptional activity. Compound IC50s were determined by four-parameter curve fitting using GeneData software.

In experiment [3] the target is T2, Tankyrase 1 (TNKS1) (Homo sapiens, UniProt O95271).
T2 construct: His6-TNKS1, MW=28.2 KDa (construct: 1088-1327, 1266M)
T2 sequence (O95271 1088-1327): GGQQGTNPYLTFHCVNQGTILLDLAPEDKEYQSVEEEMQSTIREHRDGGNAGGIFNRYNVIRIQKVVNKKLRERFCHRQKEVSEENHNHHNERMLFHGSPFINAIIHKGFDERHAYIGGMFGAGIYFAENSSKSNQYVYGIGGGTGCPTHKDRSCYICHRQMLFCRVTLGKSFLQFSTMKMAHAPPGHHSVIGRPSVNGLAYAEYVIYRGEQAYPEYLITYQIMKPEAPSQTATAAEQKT
As to the kind of experiment: μHTS-TNKS-IWR2 TR-FRET Binding Assay (Example 71), TNKS1.

The target in experiment [4] is T3, tankyrase 2 (His6-TNKS2) (Homo sapiens, UniProt Q9H2K2).
T3 construct: His6-tankyrase 2 (construct: 934-1166) (His6-TNKS2)
T3 sequence (Q9H2K2 934-1166): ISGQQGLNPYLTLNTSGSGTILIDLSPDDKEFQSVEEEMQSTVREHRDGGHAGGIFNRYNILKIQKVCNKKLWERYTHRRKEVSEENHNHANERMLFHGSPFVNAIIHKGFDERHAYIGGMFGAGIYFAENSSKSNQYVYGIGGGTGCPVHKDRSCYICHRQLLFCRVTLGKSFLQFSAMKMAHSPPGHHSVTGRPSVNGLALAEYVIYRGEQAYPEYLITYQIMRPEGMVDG
As to the kind of experiment: μHTS-TNKS-IWR2 TR-FRET Binding Assay (Example 71), TNKS2. Conditions: footnote 1: Tankyrase 1 and 2 inhibition assay in Example 71 (TR-FRET).

Where a name gives a salt, the structure may show the parent alone.

T1 sequence (P09874 whole entry, species assumed): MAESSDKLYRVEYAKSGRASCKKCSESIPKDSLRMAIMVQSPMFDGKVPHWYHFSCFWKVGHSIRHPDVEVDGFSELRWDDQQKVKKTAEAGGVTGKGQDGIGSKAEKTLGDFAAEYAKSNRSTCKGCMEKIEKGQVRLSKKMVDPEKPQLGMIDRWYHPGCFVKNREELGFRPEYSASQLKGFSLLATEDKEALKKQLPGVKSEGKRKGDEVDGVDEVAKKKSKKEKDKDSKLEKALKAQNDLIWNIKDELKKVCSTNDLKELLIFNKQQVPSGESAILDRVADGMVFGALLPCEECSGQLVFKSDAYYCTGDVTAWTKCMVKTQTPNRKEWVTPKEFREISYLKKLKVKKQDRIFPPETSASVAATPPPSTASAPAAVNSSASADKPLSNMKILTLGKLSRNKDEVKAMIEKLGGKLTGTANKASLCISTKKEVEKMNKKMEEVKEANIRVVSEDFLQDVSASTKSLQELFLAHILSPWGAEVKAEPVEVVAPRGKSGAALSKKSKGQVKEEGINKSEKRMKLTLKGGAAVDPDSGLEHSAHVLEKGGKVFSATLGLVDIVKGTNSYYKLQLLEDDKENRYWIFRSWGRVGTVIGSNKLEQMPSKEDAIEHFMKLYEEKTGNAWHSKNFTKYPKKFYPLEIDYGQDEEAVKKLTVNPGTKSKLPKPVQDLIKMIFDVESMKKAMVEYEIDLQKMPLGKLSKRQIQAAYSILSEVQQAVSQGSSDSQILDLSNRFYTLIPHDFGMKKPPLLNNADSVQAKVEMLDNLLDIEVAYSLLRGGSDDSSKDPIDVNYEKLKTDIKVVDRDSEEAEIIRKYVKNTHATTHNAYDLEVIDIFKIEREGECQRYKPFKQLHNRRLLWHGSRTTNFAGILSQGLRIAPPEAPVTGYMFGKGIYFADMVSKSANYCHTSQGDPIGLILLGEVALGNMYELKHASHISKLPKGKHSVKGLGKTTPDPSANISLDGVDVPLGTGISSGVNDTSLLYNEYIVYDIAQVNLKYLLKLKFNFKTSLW

On to `Cc1cccc2c(=O)[nH]c3c(c12)COC(C(C)(C)CO)C3` (racemic) [Compound I-1, rac-2-(2-Hydroxy-1,1-dimethyl-ethyl)-5-methyl-1,2,4,10-tetrahydro-3-oxa-10-aza-phenanthren-9-one], for which the figures for the IC50 in experiment [1] and in experiment [2] were 91.8 nM and 10.6 nM, respectively.

With `CCC(C)C1Cc2[nH]c(=O)c3ccccc3c2CO1` (stereo not shown) [Compound I-18, 2-sec-Butyl-1,2,4,10-tetrahydro-3-oxa-10-aza-phenanthren-9-one], the figures for the IC50 in experiment [3], in experiment [1] and in experiment [4] were 56.8 nM, above 50000 nM and 88.3 nM, respectively.

As to `CC(C)(C)OC(=O)N1CCC(C2Cc3[nH]c(=O)c4ccccc4c3CO2)C1` (stereo not shown) [Compound I-35, 3-(9-Oxo-1,4,9,10-tetrahydro-2H-3-oxa-10-aza-phenanthren-2-yl)-pyrrolidine-1-carboxylic acid tert-butyl ester], the half-inhibitory concentration (IC50) in experiment [3] came out at 37.9 nM; in experiment [1], 69.9 nM; in experiment [4] it was 56 nM.

For `O=c1[nH]c2c(c3ccccc13)COC(C1CCNC1)C2` (stereo not shown) [Compound I-36, 2-Pyrrolidin-3-yl-1,2,4,10-tetrahydro-3-oxa-10-aza-phenanthren-9-one, hydrochloride], the IC50 in experiment [3] stood at 168 nM; in experiment [1], 27.7 nM; in experiment [4], 246 nM.

Turning to `CC(=O)N1CCC(C2Cc3[nH]c(=O)c4ccccc4c3CO2)C1` (stereo not shown) [Compound I-37, 2-(1-Acetyl-pyrrolidin-3-yl)-1,2,4,10-tetrahydro-3-oxa-10-aza-phenanthren-9-one], the results for the half-maximal inhibitory concentration (IC50) in experiment [3], in experiment [1] and in experiment [4] were 49.9 nM, 104 nM and 67.4 nM, respectively.

As to `O=C(C1CC1)N1CCC(C2Cc3[nH]c(=O)c4ccccc4c3CO2)C1` (stereo not shown) [Compound I-44, 2-(1-Cyclopropanecarbonyl-pyrrolidin-3-yl)-1,2,4,10-tetrahydro-3-oxa-10-aza-phenanthren-9-one], the IC50 in experiment [3] is 42.2 nM; in experiment [1], 67.3 nM; in experiment [4] it was 65.6 nM.

`CC1(C(=O)N2CCC(C3Cc4[nH]c(=O)c5ccccc5c4CO3)C2)CC1` (stereo not shown) [Compound I-45, 2-[1-(1-Methyl-cyclopropanecarbonyl)-pyrrolidin-3-yl]-1,2,4,10-tetrahydro-3-oxa-10-aza-phenanthren-9-one]: the IC50 stood at 64.7 nM in experiment [3], 78.3 nM in experiment [1] and 86.7 nM in experiment [4].

Consider `CC(C)(C)OC(=O)N1CCC(C2Cc3[nH]c(=O)c4cccnc4c3CO2)CC1` (stereo not shown) [Compound I-51, tert-butyl 4-(5-oxo-6 7 8 10-tetrahydropyrano[4 3-h][l 6]naphthyridin-8-yl)piperidine-1-carboxylate], for which the values for the concentration for half-maximal inhibition (IC50) in experiment [3], in experiment [1] and in experiment [4] were 39 nM, 363 nM and 49.8 nM, respectively.

Consider `Cc1cccc2c(=O)[nH]c3c(c12)COC(C(C)(C)COCc1ccccc1)C3` (stereo not shown) [Compound I-68, 3-(2-benzyloxy-1 1-dimethyl-ethyl)-10-methyl-1 3 4 5-tetrahydropyrano[4 3-c]isoquinolin-6-one], for which the IC50 worked out at 28 nM in experiment [3], 26 nM in experiment [1] and 28.7 nM in experiment [4].

For `CC(C)C1Cc2[nH]c(=O)c3cccc(F)c3c2CO1` (stereo not shown) [Compound I-69, 10-Fluoro-3-isopropyl-1 3 4 5-tetrahydropyrano[4,3-c]isoquinolin-6-one], the 50% inhibitory concentration (IC50) in experiment [2] was 11.2 nM.

Turning to `CC(C)C1Cc2[nH]c(=O)c3cccc(Cl)c3c2CO1` (stereo not shown) [Compound I-70, 10-chloro-3-isopropyl-1 3 4 5-tetrahydropyrano[4,3-c]isoquinolin-6-one], the IC50 in experiment [2] stood at 12.9 nM.

`Cc1cccc2c(=O)[nH]c3c(c12)COC(C1CCN(C2COC2)CC1)C3` (stereo not shown) [Compound I-71, 10-methyl-3-[1-(oxetan-3-yl)-4-piperidyl]-1 3 4 5-tetrahydropyrano[4,3-c]isoquinolin-6-one]: the IC50 in experiment [2] amounted to 2.01 nM.

Regarding `Cc1cccc2c(=O)[nH]c3c(c12)COC(C1CCN(C2CCOCC2)CC1)C3` (stereo not shown) [Compound I-72, 10-Methyl-3-(1-tetrahydropyran-4-yl-4-piperidyl)-1 3 4 5-tetrahydropyrano[4,3-c]isoquinolin-6-one], the IC50 in experiment [2] was 92.4 nM.

As for `COCCN1CCC(C2Cc3[nH]c(=O)c4cccc(C)c4c3CO2)CC1` (stereo not shown) [Compound I-73, 3-[1-(2-methoxyethyl)-4-piperidyl]-10-methyl-1 3 4 5-tetrahydropyrano[4,3-c]isoquinolin-6-one], the 50% inhibitory concentration (IC50) in experiment [2] came to 29.4 nM.

As for `Cc1cccc2c(=O)[nH]c3c(c12)COC(C1CCN(S(=O)(=O)C2CCOCC2)CC1)C3` (stereo not shown) [Compound I-74, 10-methyl-3-(1-tetrahydropyran-4-ylsulfonyl-4-piperidyl)-1 3 4 5-tetrahydropyrano[4,3-c]isoquinolin-6-one], the half-maximal inhibitory concentration (IC50) in experiment [2] came out at 9.5 nM.

Take `Cc1cccc2c(=O)[nH]c3c(c12)COC(C1CCN(CCO)CC1)C3` (stereo not shown) [Compound I-75, 3-[1-(2-hydroxyethyl)-4-piperidyl]-10-methyl-1 3 4 5-tetrahydropyrano[4,3-c]isoquinolin-6-one]: the IC50 in experiment [2] came to 27.2 nM.

In the case of `Cc1cccc2c(=O)[nH]c3c(c12)COC(CC(C)O)C3` (stereo not shown) [Compound I-76, 3-(2-hydroxypropyl)-10-methyl-1 3 4 5-tetrahydropyrano[4,3-c]isoquinolin-6-one], the IC50 in experiment [2] amounted to 15.9 nM.
